According to PubChem BioAssay AID248 (DTP/NCI, 2004):
Values joined by “and” are separate entries in the source; they are usually repeats but may differ in a detail not shown here. Identical values can stand only once. Inconclusive results and toxic doses are left out.

Test system: L1210 leukemia ip in BDF1 mice, survival T/C
Experiment: NCI In Vivo Anticancer Drug Screen. Data for tumor model L1210 Leukemia (intraperitoneal) in B6D2F1 (BDF1) mice
Settings: endpoint: mean survival time, higher = longer survival
Outline: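 Tumor was transplanted into mice, which were then dosed with test compound or vehicle alone. Survival was recorded for each group, and the treated figure was expressed relative to the control figure.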

[1] = dose: 100.0 mg/kg/injection, schedule: Q01DX009 (ip), vehicle: Klucel (hydroxypropylcellulose) (HPC)
[2] = dose: 100.0 mg/kg/injection, schedule: Q04DX003 (ip), vehicle: Klucel (hydroxypropylcellulose) (HPC)
[3] = dose: 200.0 mg/kg/injection, schedule: Q01DX009 (ip), vehicle: Klucel (hydroxypropylcellulose) (HPC)
[4] = dose: 200.0 mg/kg/injection, schedule: Q04DX003 (ip), vehicle: Klucel (hydroxypropylcellulose) (HPC)
[5] = dose: 400.0 mg/kg/injection, schedule: Q01DX009 (ip), vehicle: Klucel (hydroxypropylcellulose) (HPC)
[6] = dose: 200.0 mg/kg/injection, schedule: Q01DX001 (ip), vehicle: other
[7] = dose: 400.0 mg/kg/injection, schedule: Q01DX001 (ip), vehicle: other
[8] = dose: 50.0 mg/kg/injection, schedule: Q01DX009 (ip), vehicle: Klucel (hydroxypropylcellulose) (HPC)
[9] = dose: 100.0 mg/kg/injection, schedule: Q01DX009 (ip), vehicle: saline with Tween-80
[10] = dose: 200.0 mg/kg/injection, schedule: Q01DX009 (ip), vehicle: saline with Tween-80
[11] = dose: 400.0 mg/kg/injection, schedule: Q01DX009 (ip), vehicle: saline with Tween-80
[12] = dose: 6.25 mg/kg/injection, schedule: Q01DX009 (ip), vehicle: saline
[13] = dose: 12.5 mg/kg/injection, schedule: Q01DX009 (ip), vehicle: saline
[14] = dose: 25.0 mg/kg/injection, schedule: Q01DX009 (ip), vehicle: saline
[15] = dose: 100.0 mg/kg/injection, schedule: Q01DX001 (ip), vehicle: saline
[16] = dose: 25.0 mg/kg/injection, schedule: Q01DX001 (ip), vehicle: carboxymethylcellulose (CMC)
[17] = dose: 50.0 mg/kg/injection, schedule: Q01DX001 (ip), vehicle: carboxymethylcellulose (CMC)
[18] = dose: 100.0 mg/kg/injection, schedule: Q04DX003 (ip), vehicle: saline with Tween-80
[19] = dose: 200.0 mg/kg/injection, schedule: Q04DX003 (ip), vehicle: saline with Tween-80
[20] = dose: 400.0 mg/kg/injection, schedule: Q04DX003 (ip), vehicle: saline with Tween-80
[21] = dose: 100.0 mg/kg/injection, schedule: Q04DX002 (ip), vehicle: Klucel (hydroxypropylcellulose) (HPC)
[22] = dose: 200.0 mg/kg/injection, schedule: Q04DX002 (ip), vehicle: Klucel (hydroxypropylcellulose) (HPC)

CC(=O)CC(=O)NC1CCCCCC1
T/C [1]: 92 % of control | T/C [2]: 100 % of control | T/C [3]: 103 % of control | T/C [4]: 100 % of control | T/C [5]: 97 % of control | T/C (dose: 400.0 mg/kg/injection, schedule: Q04DX003 (ip), vehicle: Klucel (hydroxypropylcellulose) (HPC)): 96 % of control

Cc1cc(N(CCCl)CCCl)ccc1C=Nc1cccc2ncccc12
T/C (dose: 100.0 mg/kg/injection, schedule: Q01DX001 (ip), vehicle: other): 95 % of control | T/C [6]: 97 % of control | T/C [7]: 93 % of control

O=c1c2ccccc2sc2c(CO)ccc(NCCN3CCCCC3)c12
T/C [8]: 99 % of control | T/C [1]: 96 % of control | T/C [3]: 120 % of control

CCCCCCCCCC(=O)N/N=C/c1cccc([N+](=O)[O-])c1
T/C [9]: 97 % of control | T/C [10]: 91 % of control | T/C [11]: 100 % of control

O=C1CCCc2ccc([N+](=O)[O-])cc21
T/C (dose: 100.0 mg/kg/injection, schedule: Q04DX003 (ip), vehicle: saline): 96 % of control | T/C (dose: 200.0 mg/kg/injection, schedule: Q04DX003 (ip), vehicle: saline): 87 % of control

CSC(N)=NC1CCCCC1
T/C [12]: 103 % of control | T/C [13]: 107 % of control | T/C (dose: 12.5 mg/kg/injection, schedule: Q04DX002 (ip), vehicle: saline): 109 % of control | T/C [14]: 100 % of control | T/C (dose: 25.0 mg/kg/injection, schedule: Q04DX002 (ip), vehicle: saline): 105 % of control

CCn1c[n+](-c2ccccc2)cn1
T/C [15]: 106 % of control

Nc1ncn(C2CC(O)C(CO)O2)c(=O)n1 (configuration not stated)
T/C (dose: 0.05 mg/kg/injection, schedule: Q01DX005 (ip), vehicle: saline): 155 % of control | T/C (dose: 0.12 mg/kg/injection, schedule: Q01DX005 (ip), vehicle: saline): 154 % of control | T/C (dose: 0.78 mg/kg/injection, schedule: Q01DX005 (ip), vehicle: saline): 94 % of control | T/C (dose: 1.56 mg/kg/injection, schedule: Q01DX005 (ip), vehicle: saline): 98 % of control | T/C (dose: 1.56 mg/kg/injection, schedule: Q01DX009 (ip), vehicle: saline): 114 % of control | T/C (dose: 3.12 mg/kg/injection, schedule: Q01DX005 (ip), vehicle: saline): 100 % of control | T/C (dose: 3.12 mg/kg/injection, schedule: Q01DX009 (ip), vehicle: saline): 100 % of control | T/C [12]: 86 % of control | T/C [15]: 171 % of control | T/C (dose: 100.0 mg/kg/injection, schedule: Q01DX005 (ip), vehicle: saline): 167 % of control and 174 % of control | T/C (dose: 200.0 mg/kg/injection, schedule: Q01DX005 (ip), vehicle: saline): 174 % of control and 198 % of control | T/C (dose: 300.0 mg/kg/injection, schedule: Q04DX003 (ip), vehicle: saline): 167 % of control

CC(=O)OCC1OC(n2c(Br)nc3c(N)ncnc32)C2OC(C)(C)OC12 (configuration not stated)
T/C [16]: 95 % of control | T/C [17]: 100 % of control | T/C (dose: 100.0 mg/kg/injection, schedule: Q01DX001 (ip), vehicle: carboxymethylcellulose (CMC)): 93 % of control

CN(C)[C@@H]1C(=O)C(C(=O)NCNc2cccc(C(=O)O)c2C(=O)O)=C(O)[C@@]2(O)C(=O)C3=C(O)c4c(O)cccc4[C@@](C)(O)[C@H]3C[C@@H]12
T/C (dose: 100.0 mg/kg/injection, schedule: Q01DX Z (ip), vehicle: saline): 110 % of control | T/C (dose: 150.0 mg/kg/injection, schedule: Q01DX Z (ip), vehicle: saline): 105 % of control | T/C (dose: 225.0 mg/kg/injection, schedule: Q01DX Z (ip), vehicle: saline): 104 % of control | T/C (dose: 340.0 mg/kg/injection, schedule: Q01DX Z (ip), vehicle: saline): 103 % of control

O=C1c2ccccc2C(=O)N1OCc1cc(Cl)sc1Cl
T/C [18]: 97 % of control | T/C [19]: 96 % of control | T/C [20]: 104 % of control

CCN(CC)c1ccc(N=Cc2ccccc2S(=O)(=O)O)cc1
T/C [12]: 95 % of control | T/C (dose: 6.25 mg/kg/injection, schedule: Q04DX003 (ip), vehicle: saline sonified): 97 % of control | T/C [13]: 96 % of control | T/C (dose: 12.5 mg/kg/injection, schedule: Q04DX003 (ip), vehicle: saline sonified): 103 % of control | T/C [14]: 93 % of control | T/C (dose: 25.0 mg/kg/injection, schedule: Q04DX003 (ip), vehicle: saline sonified): 110 % of control

O=C(O)C1CC1c1ccc(Br)cc1 (configuration not stated)
T/C [21]: 123 % of control | T/C [22]: 100 % of control

CCCC(C(=O)OCC)C1=NC(C)(C)CC(C)O1 (configuration not stated)
T/C (dose: 100.0 mg/kg/injection, schedule: Q01DX009 (ip), vehicle: alcohol): 102 % of control | T/C (dose: 200.0 mg/kg/injection, schedule: Q01DX009 (ip), vehicle: alcohol): 105 % of control | T/C (dose: 400.0 mg/kg/injection, schedule: Q01DX009 (ip), vehicle: alcohol): 105 % of control

CN1CNC(C=O)(CCc2ccc(Cl)cc2)C1 (configuration not stated)
T/C [6]: 87 % of control | T/C [7]: 98 % of control

N#CSC/C=C/Cl
T/C [8]: 94 % of control | T/C [1]: 107 % of control | T/C [2]: 92 % of control | T/C [4]: 90 % of control

Cc1cc(C)n(/N=C/c2cccc(Cl)c2)c(=O)c1C#N
T/C [9]: 88 % of control | T/C [18]: 95 % of control | T/C [10]: 87 % of control | T/C [19]: 90 % of control | T/C [11]: 92 % of control | T/C [20]: 90 % of control

Cc1cc(NC(=O)c2ccc(C(=O)Nc3ccc(C4=NCCN4)c(C)c3)cc2)ccc1C1=NCCN1
T/C (dose: 48.0 mg/kg/injection, schedule: Q01DX Z (ip), vehicle: carboxymethylcellulose (CMC)): 109 % of control | T/C (dose: 72.0 mg/kg/injection, schedule: Q01DX Z (ip), vehicle: carboxymethylcellulose (CMC)): 122 % of control | T/C (dose: 100.0 mg/kg/injection, schedule: Q01DX Z (oral), vehicle: water): 92 % of control | T/C (dose: 110.0 mg/kg/injection, schedule: Q01DX Z (ip), vehicle: carboxymethylcellulose (CMC)): 150 % of control and 277 % of control | T/C (dose: 168.0 mg/kg/injection, schedule: Q01DX Z (ip), vehicle: carboxymethylcellulose (CMC)): 164 % of control | T/C (dose: 200.0 mg/kg/injection, schedule: Q01DX Z (oral), vehicle: water): 107 % of control | T/C (dose: 250.0 mg/kg/injection, schedule: Q01DX Z (ip), vehicle: carboxymethylcellulose (CMC)): 108 % of control and 112 % of control | T/C (dose: 375.0 mg/kg/injection, schedule: Q01DX Z (ip), vehicle: carboxymethylcellulose (CMC)): 92 % of control | T/C (dose: 400.0 mg/kg/injection, schedule: Q01DX Z (oral), vehicle: water): 92 % of control | T/C (dose: 800.0 mg/kg/injection, schedule: Q01DX Z (oral), vehicle: water): 102 % of control

CCCCCCCCCCCCCCCCCC(=O)OCCCCCCC
T/C [1]: 102 % of control | T/C [3]: 102 % of control | T/C [5]: 112 % of control

COc1cccc(OC)c1C(=O)O
T/C [21]: 100 % of control | T/C [22]: 111 % of control | T/C (dose: 400.0 mg/kg/injection, schedule: Q04DX002 (ip), vehicle: Klucel (hydroxypropylcellulose) (HPC)): 100 % of control

CC1(C)CC2(OC2c2ccccc2)C(C)(O)c2ccccc21 (configuration not stated)
T/C [18]: 98 % of control | T/C [19]: 104 % of control | T/C [20]: 96 % of control

CCCCCCN(CCCCCC)CC(=O)NCCCN1CCN(CCCNC(=O)CN(CCCCCC)CCCCCC)CC1
T/C (dose: 12.5 mg/kg/injection, schedule: Q01DX001 (ip), vehicle: carboxymethylcellulose (CMC)): 105 % of control | T/C (dose: 22.0 mg/kg/injection, schedule: Q01DX001 (ip), vehicle: carboxymethylcellulose (CMC)): 98 % of control and 104 % of control | T/C [16]: 100 % of control | T/C (dose: 33.0 mg/kg/injection, schedule: Q01DX001 (ip), vehicle: carboxymethylcellulose (CMC)): 95 % of control and 100 % of control | T/C [17]: 98 % of control and 101 % of control
